Here are results for 30 compounds from ChEMBL document CHEMBL2429729, “Synthesis, biological evaluation, and molecular modeling of (E)-2-aryl-5-styryl-1,3,4-oxadiazole derivatives as acetylcholine esterase inhibitors” (Med Chem Res, 2013).

The term IC50 denotes the concentration that inhibits the measured activity by half. A low value points to greater potency in that assay.

The assay addresses Acetylcholinesterase (Electrophorus electricus, UniProt O42275). Description: Inhibition of electric eel AChE using acetylthiocholine as substrate incubated for 20 mins prior to substrate addition measured every 30 secs for 4 mins by Ellman's method. A general note: Ellman's reagent forms a yellow product with free thiols.

Acetylcholinesterase, sequence (O42275 whole entry): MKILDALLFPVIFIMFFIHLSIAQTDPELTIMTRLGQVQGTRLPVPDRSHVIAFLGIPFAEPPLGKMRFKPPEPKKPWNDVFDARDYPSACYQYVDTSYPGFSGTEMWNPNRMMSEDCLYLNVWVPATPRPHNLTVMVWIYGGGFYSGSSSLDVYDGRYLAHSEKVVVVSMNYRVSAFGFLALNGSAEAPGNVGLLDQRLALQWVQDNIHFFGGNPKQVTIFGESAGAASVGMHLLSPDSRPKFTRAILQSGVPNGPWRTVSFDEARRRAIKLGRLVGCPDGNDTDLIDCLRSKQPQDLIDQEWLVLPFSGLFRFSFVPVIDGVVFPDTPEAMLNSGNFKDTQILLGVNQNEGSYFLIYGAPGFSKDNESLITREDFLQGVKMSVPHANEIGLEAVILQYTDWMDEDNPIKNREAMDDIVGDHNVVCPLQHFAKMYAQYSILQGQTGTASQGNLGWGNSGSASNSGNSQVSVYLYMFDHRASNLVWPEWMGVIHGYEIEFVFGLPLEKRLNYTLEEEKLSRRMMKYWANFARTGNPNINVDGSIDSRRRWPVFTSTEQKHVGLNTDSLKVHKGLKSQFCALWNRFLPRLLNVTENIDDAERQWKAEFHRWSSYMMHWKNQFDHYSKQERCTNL

In turn, `Clc1ncccc1-c1nnc(/C=C/c2ccc3c(c2)OCO3)o1` had a half-inhibitory concentration (IC50) of 54.3 µM. The result for `O=[N+]([O-])c1cccc(-c2nnc(/C=C/c3ccc4c(c3)OCO4)o2)c1` reads 49.4 µM; that for `COc1cc(/C=C/c2nnc(-c3cccnc3Cl)o2)cc(OC)c1OC`, 61.2 µM. The result for `COc1ccc(-c2nnc(/C=C/c3ccc4c(c3)OCO4)o2)cc1` reads 42.8 µM. The result for `COc1cc(/C=C/c2nnc(-c3ccccc3Br)o2)cc(OC)c1OC` reads 64.9 µM; that for `Fc1ccc(-c2nnc(/C=C/c3ccc4c(c3)OCO4)o2)cc1Cl`, 49.6 µM; that for `COc1cc(/C=C/c2nnc(-c3cc(OC)c(OC)c(OC)c3)o2)cc(OC)c1OC`, 61.5 µM. With `COc1ccc(-c2nnc(/C=C/c3cc(OC)c(OC)c(OC)c3)o2)cc1`, the IC50 is 61.2 µM. The result for `COc1cc(/C=C/c2nnc(-c3ccccc3)o2)cc(OC)c1OC` reads 24.9 µM; that for `Cc1ccc(-c2nnc(/C=C/c3ccc4c(c3)OCO4)o2)cc1`, 45.3 µM; that for `COc1cc(/C=C/c2nnc(-c3cncc(Br)c3)o2)cc(OC)c1OC`, 62.8 µM. With `COc1cc(/C=C/c2nnc(-c3cccc([N+](=O)[O-])c3)o2)cc(OC)c1OC` the figure was 65.8 µM. The result for `Clc1ccccc1-c1nnc(/C=C/c2ccc3c(c2)OCO3)o1` reads 47.4 µM; that for `COc1cc(/C=C/c2nnc(-c3ccccc3Cl)o2)cc(OC)c1OC`, 58.1 µM.

`COc1cc(/C=C/c2nnc(-c3cc4ccccc4o3)o2)cc(OC)c1OC` had an IC50 of 60.4 µM. The result for `COc1cc(/C=C/c2nnc(-c3ccc(F)cc3Cl)o2)cc(OC)c1OC` reads 60.2 µM; that for `COc1cc(-c2nnc(/C=C/c3ccc4c(c3)OCO4)o2)cc(OC)c1OC`, 48.6 µM; that for `COc1cc(/C=C/c2nnc(-c3cccnc3)o2)cc(OC)c1OC`, 65 µM.

In turn, `COc1cc(/C=C/c2nnc(-c3ccc(Cl)cc3Cl)o2)cc(OC)c1OC` had an IC50 of 62.2 µM. With `Brc1cncc(-c2nnc(/C=C/c3ccc4c(c3)OCO4)o2)c1` the figure was 52.5 µM.

The compound `C(=C\c1nnc(-c2cccnc2)o1)/c1ccc2c(c1)OCO2` showed an IC50 of 48.5 µM. With `COc1cc(/C=C/c2nnc(-c3ccc([N+](=O)[O-])cc3)o2)cc(OC)c1OC` the figure was 49 µM. The result for `COc1cc(/C=C/c2nnc(-c3ccco3)o2)cc(OC)c1OC` reads 13.7 µM. With `C(=C\c1nnc(-c2ccccc2)o1)/c1ccc2c(c1)OCO2` the figure was 50.1 µM. As to `COc1ccc(-c2nnc(/C=C/c3ccc4c(c3)OCO4)o2)cc1OC`, the IC50 stood at 40.5 µM.

In turn, `Fc1ccc(-c2nnc(/C=C/c3ccc4c(c3)OCO4)o2)c(Cl)c1` had an IC50 of 19.6 µM. The result for `COc1cc(/C=C/c2nnc(-c3ccc(C)cc3)o2)cc(OC)c1OC` reads 60.2 µM; that for `Clc1ccc(-c2nnc(/C=C/c3ccc4c(c3)OCO4)o2)c(Cl)c1`, 50.3 µM. The result for `O=[N+]([O-])c1ccc(-c2nnc(/C=C/c3ccc4c(c3)OCO4)o2)cc1` reads 37.6 µM. The result for `Brc1ccccc1-c1nnc(/C=C/c2ccc3c(c2)OCO3)o1` reads 40.2 µM.
